Test results: PubChem BioAssay (NCI)
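Results reflect a 48-hour exposure of cells in 96-well plates to compound at five concentrations. TGI denotes the concentration required for complete inhibition of growth.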

Columns and labels:
Experiment in all cases: NCI tumour cell line growth inhibition, 48 h
[1] = test system: MDA-MB-435
[2] = test system: SK-MEL-28 melanoma
[3] = test system: UACC-257 melanoma
[4] = test system: UO-31 renal
[5] = test system: SR leukemia
[6] = test system: 786-0 renal
[7] = test system: A549 NSCLC
[8] = test system: K-562 leukemia
[9] = test system: HCT-15 colon
[10] = test system: MCF7 breast
[11] = test system: HL-60(TB) leukemia
[12] = test system: M14 melanoma
[13] = test system: CCRF-CEM leukemia
[14] = test system: OVCAR-8 ovarian
[15] = test system: SW-620 colon
[16] = test system: LOX IMVI melanoma
[17] = test system: OVCAR-3 ovarian
[18] = test system: BT-549 breast
[19] = test system: A498 renal
[20] = test system: SK-MEL-5 melanoma

Row | SMILES | TGI [1] [µM] | TGI [2] [µM] | TGI [3] [µM] | TGI [4] [µM] | TGI [5] [µM] | TGI [6] [µM] | TGI [7] [µM] | TGI [8] [µM] | TGI [9] [µM] | TGI [10] [µM] | TGI [11] [µM] | TGI [12] [µM] | TGI [13] [µM] | TGI [14] [µM] | TGI [15] [µM] | TGI [16] [µM] | TGI [17] [µM] | TGI [18] [µM] | TGI [19] [µM] | TGI [20] [µM]
1 | COc1cccc(/C=C2\CCCc3ccccc3C2=O)c1 | 30.1 | 41.1 | 33.2 | 29.7 | 31.3 | 27.4 | > 100 | 48.2 | 26 | 51.6 | 35 | 25.6 | 35.3 | 51.5 | 35.5 | 38.9 | 34 | 39.3 | – | –
2 | COc1cccc2c1CCc1cc3c(N)nc(N)nc3nc1-2 | 27.4 | 11 | 31.4 | 9.7 | > 34.5 | 6.13 | 7.69 | > 21.4 | 23.4 | 47.9 | – | 20.9 | 7.02 | 21.7 | 25 | 3.34 | 16 | 52.1 | 32.9 | 10.2
3 | CC[C@H](Nc1c(O)c2c(c(O)c1Cl)C(=O)C=CC2=O)C(=O)OC | > 10 | – | > 10 | – | 7.74 | > 10 | > 10 | > 10 | > 10 | > 10 | 8.64 | > 10 | > 10 | > 10 | > 10 | > 10 | > 10 | > 10 | – | > 10
4 | CCCSc1ccc2[nH]c(/N=C/c3ccccc3)cc2c1 | > 100 | 90.7 | 57 | > 100 | 27.8 | 40.1 | – | 38.8 | > 100 | – | – | > 100 | 64.4 | 56.2 | > 100 | 32.5 | 60.3 | 97.2 | 60.1 | 20.4
5 | Nc1c2ccccc2nc2ccc3c(=O)cc(-c4ccccc4)oc3c12 | 2.39 | 3.21 | 3.39 | 2.86 | 2.23 | 0.348 | – | 0.326 | 4.3 | 2.05 | 3.07 | 2.67 | – | 1.89 | 0.34 | – | 2.85 | 59.7 | – | –
6 | O=S(CC1(O)CCCCC1)c1ccccc1 (stereo not drawn) | – | > 100 | > 100 | > 100 | > 100 | > 100 | > 100 | > 100 | > 100 | > 100 | > 100 | > 100 | > 100 | > 100 | > 100 | > 100 | – | > 100 | – | > 100
7 | Cc1n[nH]c(=O)n1/N=C/c1ccc(F)cc1 | > 100 | > 100 | > 100 | > 100 | > 100 | > 100 | > 100 | > 100 | > 100 | – | – | > 100 | > 100 | > 100 | > 100 | – | > 100 | > 100 | > 100 | –
8 | Nc1ccc2c(=O)cc(-c3cccs3)[nH]c2n1 | – | > 100 | > 100 | 26.6 | > 34 | > 100 | > 37.5 | > 100 | > 60.4 | > 100 | 0.671 | > 54.8 | > 44.9 | > 60.5 | > 100 | > 45.4 | > 100 | > 100 | > 100 | 21
9 | Nc1nc(N)c2cc(-c3ccccc3)cnc2n1 | – | 35 | 30.6 | 25.7 | 21.2 | 21.5 | 28 | 17.7 | > 100 | 44.1 | 28.4 | 57.7 | 98.3 | 57.4 | 22.9 | 37.6 | 35.8 | 30.2 | 28.5 | 27.3
10 | CCN(CC)c1ccc2cc(C(N)=S)c(=N)oc2c1 | > 100 | > 100 | > 100 | > 100 | > 100 | > 100 | > 100 | > 100 | > 100 | > 100 | > 100 | > 100 | > 100 | > 100 | > 100 | > 100 | – | > 100 | – | > 100
11 | CN(C)CCCNc1ccc2c(=O)n(CCN(C)C)c(=O)n3c4ccccc4c(=O)c1c23 | 0.885 | 2.57 | 2.05 | 2.08 | 2.96 | 0.752 | 10.5 | – | 1.13 | 0.565 | – | 1.59 | > 100 | 3.59 | – | 0.343 | 3.35 | 0.369 | 5.35 | 2.19
12 | O=c1[nH]/c(=C/c2ccc(OCc3ccccc3)cn2)c(=O)[nH]/c1=C/c1ccc(F)cc1 | 0.687 | > 100 | 58.4 | > 60.1 | 1.29 | 30 | > 50 | > 36.4 | > 42.6 | > 100 | – | > 32.1 | > 44.7 | > 47 | > 44.6 | > 100 | 1.42 | > 58.5 | > 100 | > 100
13 | COC(=O)c1ccccc1C1CN=NC12Cc1ccccc1C2=O (stereo not drawn) | > 100 | > 100 | > 100 | > 100 | > 100 | > 100 | > 100 | > 100 | > 100 | > 100 | > 100 | > 100 | > 100 | > 100 | > 100 | > 100 | > 100 | > 100 | – | > 100
14 | CCOP(=O)(OCC)/C(=C/NC(=S)c1ccncc1)C(=O)OC | > 100 | – | > 100 | > 100 | > 100 | > 100 | > 100 | > 100 | > 100 | > 100 | > 100 | > 100 | 64.8 | > 100 | > 100 | > 100 | > 100 | > 100 | – | > 100
15 | Nc1nc2c(c(=O)[nH]1)C(c1ccccc1)CC(=O)N2 (stereo not drawn) | > 100 | > 100 | > 100 | > 100 | > 100 | > 100 | > 100 | > 100 | > 100 | > 100 | – | > 100 | – | > 100 | > 100 | > 100 | > 100 | > 100 | > 100 | > 100
16 | COc1cc(/C=C2\N=C(c3ccccc3)N(c3nc4cc(C)c(C)cc4s3)C2=O)ccc1O | 52.1 | > 100 | > 100 | > 100 | 57.8 | > 100 | > 100 | > 100 | > 100 | 39.1 | 43.9 | > 100 | 39.1 | > 100 | > 100 | > 100 | 65.3 | > 100 | – | > 100
17 | NC(N)=NS(=O)(=O)c1ccc(NNc2c3ccccc3nc3c(C(=O)Nc4ccc(S(=O)(=O)N=C(N)N)cc4)cccc23)cc1 | > 100 | 89.6 | > 100 | > 100 | > 100 | > 100 | > 100 | 63.6 | > 100 | > 100 | 88.8 | > 100 | 60.1 | > 100 | > 100 | > 100 | > 100 | > 100 | – | > 100
18 | CC12CCC(C(Nc3cc(C(F)(F)F)cc(C(F)(F)F)c3)C1=O)C2(C)C (stereo not drawn) | > 100 | > 100 | > 100 | > 100 | > 100 | > 100 | > 100 | > 100 | > 100 | > 100 | – | > 100 | – | > 100 | > 100 | > 100 | > 100 | > 100 | > 100 | > 100
19 | COc1ccc2nccc(SCC(=O)O)c2c1 | > 100 | > 100 | > 100 | > 100 | > 100 | > 100 | > 100 | > 100 | > 100 | – | > 100 | > 100 | > 100 | > 100 | > 100 | > 100 | > 100 | > 100 | > 100 | > 100
20 | O=C1/C(=C/c2ccc(OC(=O)c3ccccc3)cc2)CCC/C1=C\c1ccc(OC(=O)c2ccccc2)cc1 | > 100 | > 100 | > 100 | > 100 | > 100 | > 100 | > 100 | – | > 100 | > 100 | > 100 | > 100 | > 100 | > 100 | > 100 | > 100 | > 100 | > 100 | – | > 100
21 | Nc1nc(Cl)c(/C=N\O)c(NCC2(CO)CCC2)n1 | > 100 | > 100 | > 100 | > 100 | > 100 | > 100 | > 100 | > 100 | > 100 | > 100 | – | – | > 100 | > 100 | > 100 | > 100 | > 100 | > 100 | > 100 | > 100
22 | O=S(=O)(c1ccccc1)C(c1ccc2ccccc2n1)S(=O)(=O)c1ccccc1 | – | > 100 | > 100 | > 100 | > 100 | > 100 | > 100 | > 100 | > 100 | > 100 | > 100 | – | – | > 100 | > 100 | > 100 | > 100 | > 100 | > 100 | > 100
23 | CC1(C)CC2=C(Sc3ccccc3N2)C(=O)C1C(=O)C(=O)Nc1cccc([N+](=O)[O-])c1 (stereo not drawn) | > 100 | > 100 | > 100 | > 100 | – | > 100 | > 100 | > 100 | > 100 | > 100 | > 100 | > 100 | > 100 | > 100 | > 100 | > 100 | > 100 | > 100 | > 100 | > 100
24 | CCCCCCCCCCCCN1[C@H]2CCC[C@H]2C(O)[C@@H]2CCC[C@@H]21 (stereo partly drawn) | > 100 | > 100 | > 100 | – | > 100 | > 100 | > 100 | > 100 | > 100 | – | > 100 | > 100 | > 100 | > 100 | > 100 | > 100 | > 100 | > 100 | > 100 | > 100
25 | O=C(O)C1CCCCC1C(=O)Nn1cnnc1 (stereo not drawn) | > 100 | > 100 | > 100 | > 100 | > 100 | > 100 | > 100 | > 100 | > 100 | > 100 | – | > 100 | > 100 | > 100 | > 100 | > 100 | > 100 | > 100 | – | > 100
26 | Cc1cccc(C)c1NC(=O)C(=O)CC(=O)/C=C/c1ccccc1 | > 100 | > 100 | > 100 | > 100 | – | > 100 | > 100 | > 100 | > 100 | > 100 | > 100 | > 100 | > 100 | > 100 | > 100 | > 100 | > 100 | > 100 | > 100 | > 100
